The text below walks through data of PMC4643906, “Interaction of the N-(3-Methylpyridin-2-yl)amide Derivatives of Flurbiprofen and Ibuprofen with FAAH: Enantiomeric Selectivity and Binding Mode” (PLoS ONE, 2015).

One experiment deals with T1, FAAH^T488A (Rattus norvegicus, UniProt P97612, T488A).
T1 construct: expressed in transfected cells; host or cells: HeLa cells, pcDNA4 plasmid, lysate
T1 sequence (P97612 1-579 T488A): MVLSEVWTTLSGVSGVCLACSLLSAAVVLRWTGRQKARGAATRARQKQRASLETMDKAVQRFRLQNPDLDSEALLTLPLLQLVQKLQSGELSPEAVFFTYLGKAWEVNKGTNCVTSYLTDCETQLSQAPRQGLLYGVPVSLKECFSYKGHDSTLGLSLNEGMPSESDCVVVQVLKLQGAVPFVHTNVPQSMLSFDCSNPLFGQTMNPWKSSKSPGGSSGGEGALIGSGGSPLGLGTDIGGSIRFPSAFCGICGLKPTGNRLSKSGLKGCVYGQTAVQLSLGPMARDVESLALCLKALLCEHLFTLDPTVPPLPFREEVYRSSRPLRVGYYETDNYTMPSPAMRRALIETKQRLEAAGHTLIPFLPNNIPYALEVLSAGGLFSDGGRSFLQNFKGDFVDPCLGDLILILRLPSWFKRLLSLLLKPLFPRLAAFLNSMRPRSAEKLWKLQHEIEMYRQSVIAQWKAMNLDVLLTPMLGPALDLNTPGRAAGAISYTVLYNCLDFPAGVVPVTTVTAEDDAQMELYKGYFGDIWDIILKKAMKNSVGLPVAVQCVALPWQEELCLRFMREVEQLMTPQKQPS
Description: Inhibition of [3H]AEA hydrolysis in lysates of HeLa cells expressing FAAH^T488A. Format: biochemical. The conditions noted are these: FAAH^T488A lysate 0.4 μg/assay, 18 h, 0.5 μM [3H]AEA.

In experiment [1] the target is T2, rat wild-type FAAH (FAAH^wt) (Rattus norvegicus, UniProt P97612).
T2 construct: expressed in transfected cells; host or cells: HeLa cells, pcDNA4 plasmid, lysate
T2 sequence (P97612 1-579): T1 sequence (P97612 1-579 T488A) with A488T
Description: Inhibition of [3H]AEA hydrolysis in lysates of HeLa cells expressing wild-type FAAH. Type of experiment: biochemical.

Another experiment deals with T3, mouse brain FAAH (Mus musculus, UniProt O08914).
T3 construct: from tissue; host or cells: mouse brain (minus cerebellum), washed membrane pellet
T3 sequence (O08914 1-579): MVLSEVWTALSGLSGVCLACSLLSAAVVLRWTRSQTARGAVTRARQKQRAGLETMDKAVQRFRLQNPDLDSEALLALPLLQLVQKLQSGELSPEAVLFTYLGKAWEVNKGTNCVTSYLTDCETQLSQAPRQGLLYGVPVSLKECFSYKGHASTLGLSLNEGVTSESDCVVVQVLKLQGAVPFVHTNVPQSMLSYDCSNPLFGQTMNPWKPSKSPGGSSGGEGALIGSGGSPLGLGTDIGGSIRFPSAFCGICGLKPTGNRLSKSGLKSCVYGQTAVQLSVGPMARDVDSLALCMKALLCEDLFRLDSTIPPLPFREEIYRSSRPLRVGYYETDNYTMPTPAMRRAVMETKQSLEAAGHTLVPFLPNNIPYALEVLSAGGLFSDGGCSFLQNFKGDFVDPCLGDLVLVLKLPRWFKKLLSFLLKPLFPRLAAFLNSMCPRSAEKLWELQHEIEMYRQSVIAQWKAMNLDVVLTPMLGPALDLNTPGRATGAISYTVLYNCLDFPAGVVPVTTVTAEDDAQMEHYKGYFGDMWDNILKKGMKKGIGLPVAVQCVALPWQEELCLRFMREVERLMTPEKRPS
The arrangement: method as in PMID 26406890. The conditions noted are these: cited from earlier work.

Where a chain is given by its changes, count along the chain named. Where two headings read alike, the source gives them in different places.

Consider `Cc1cccnc1NC(=O)[C@H](C)c1ccc(-c2ccccc2)c(F)c1` [(R)-Flu-AM1, (R)-2-(2-fluorobiphenyl-4-yl)-N-(3-methylpyridin-2-yl)propanamide], for which the nH came out at 1.47±0.37 on FAAH^T488A; 0.99±0.06 in experiment [1] (FAAH^wt + empty vector (0.36 μg/assay) lysates, 18 h, 0.5 μM [3H]AEA); 1.02±0.07 in experiment [1] (FAAH^wt lysate 0.04 μg/assay, 18 h, 0.5 μM [3H]AEA). For the same compound, the IC50 was 28 µM at FAAH^T488A (read-out: IC50); 28.2 µM on FAAH^T488A (read-out: pI50 (converted)); 8 µM in experiment [1] (FAAH^wt + empty vector (0.36 μg/assay) lysates, 18 h, 0.5 μM [3H]AEA, read-out: IC50); 7.94 µM in experiment [1] (FAAH^wt + empty vector (0.36 μg/assay) lysates, 18 h, 0.5 μM [3H]AEA, read-out: pI50 (converted)); 8.3 µM in experiment [1] (FAAH^wt lysate 0.04 μg/assay, 18 h, 0.5 μM [3H]AEA, read-out: IC50); 8.32 µM in experiment [1] (FAAH^wt lysate 0.04 μg/assay, 18 h, 0.5 μM [3H]AEA, read-out: pI50 (converted)). The IC50 in experiment [1] (preliminary experiments, another batch of wild-type FAAH, 1.5–2 μg/assay, 20 min at 37°C, read-out: potencies) is 1.6 µM; at mouse brain FAAH (mouse brain homogenates), 8.8 µM. Besides, the mode of inhibition result at mouse brain FAAH (mouse brain FAAH) was “competitive”. The pI50 at mouse brain FAAH (mouse brain homogenates) was 5.05±0.06.
